Key:
ERT2-mCherry = target: T1, ERT2-mCherry (Homo sapiens, UniProt P03372, G400V/L544A/M543A); assay: Time-lapse fluorescence microscopy of 4-OHT-induced nuclear translocation of ERT2-mCherry in HEK293T cells; type: cell-based; conditions: 4-OHT 500 nM
T1 construct: expressed in transfected cells; host or cells: HEK293T
T1 sequence (P03372 311-547 G400V/M543A/L544A limits assumed): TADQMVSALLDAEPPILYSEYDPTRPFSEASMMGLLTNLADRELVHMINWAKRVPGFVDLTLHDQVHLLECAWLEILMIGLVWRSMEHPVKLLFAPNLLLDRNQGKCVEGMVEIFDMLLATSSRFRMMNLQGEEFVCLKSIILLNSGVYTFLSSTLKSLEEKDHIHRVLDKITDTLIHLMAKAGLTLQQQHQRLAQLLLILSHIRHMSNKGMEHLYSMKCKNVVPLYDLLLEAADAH
Experimental: FIG. 2E illustrates representative time-lapse fluorescence microscopy images of HEK293T cells transiently expressing ERT2-mCherry before and after the addition of nuclear-localizing 4-OHT (500 nM) (imaged every 2 min, 100× mag., scale bar=10 μm, n=6 independently measured cells).
Tamoxifen-induced nuclear import translocation dynamics in HEK293T cells were further characterized using an ERT2-mCherry fusion protein (Fig. S1F). Using time-lapse fluorescence microscopy, we discovered that nuclear translocation driven by 4-OHT (500 nM) occurred on the order of hours. ERT2-mCherry protein was only clearly nuclear-localized (with a nuclear-to-cytosolic mean fluorescence intensity ratio≥2) after approximately three hours (FIG. 2E), highlighting an effective time window for blue light stimulation to drive robust Cre-loxP recombination in ERT2-based photoactivatable construct designs.

[1] = cited from earlier work

time to significant 4-OHT-induced nuclear translocation of ERT2-mCh fusion protein (ERT2-mCherry) | nuclear-to-cytosolic mean fluorescence intensity ratio of ERT2-mCherry (ERT2-mCherry; after approximately three hours) | Molecule | terminal elimination half-life (plasma concentrations) [1]
approximately 3 h | ≥ 2 | 4-hydroxytamoxifen [4-OHT] | –
– | – | CC/C(=C(\c1ccccc1)c1ccc(OCCN(C)C)cc1)c1ccccc1 [tamoxifen] | 5 to 7 h
